*1 amine or outer side, *2 acyl side, *3 side chain or, on linkers, in order; H or OH if unused. Where a SMILES comes first, the peptide text is derived from it. Bridges are numbered along the chain shown (N, C = ends). [ ]: non-standard residue; d: D form. The star is where a group is joined. X1 = CC(C)(CC(=O)[*:1])S[*:2]; NH(CH2)4NH2 = NCCCCN*; Mpa = O=C(O)CCS
Assays:
[1] = target: T1, V2 -vasopressin receptors (Sus scrofa, UniProt P32307); assay: V2-vasopressin receptor binding, inhibition of 3H-LVP binding, medullary pig kidney tissue
T1 construct: Medullary pig kidney tissue; from tissue; host or cells: medullary pig (hog) kidney tissue
Description: (§1) Antagonistic activity at the V1 -vasopressin receptors is determined in a protocol which measures the reversal of the vasopressin-induced contraction of rat thoracic aorta tissue. This is expressed as KB (nM) in the table below. Such anti-pressor activity is confirmed in a similar in vitro protocol using binding to the plasma membranes of rat liver. V2 -vasopressin antagonism is determined as receptor binding ability measured by inhibition of 3H-LVP binding (KB as nM), by inhibition of adenylate cyclase activation by vasopressin in the medullary tissue of hog kidneys (Ki as nM) or in vivo in the hydropenic rat protocol (ED300 μg/kg. These procedures are described in the literature: F. Stassen et al., J. Pharmacology and Experimental Therapeutics, 223 50 (1982); F. Stassen et al., lst International Conference on Diuretics, Miami, Fla., Mar. (1984). Antagonistic activity at oxytocin receptors is determined in the isolated rat uterus protocol: W. Sawyer, et al., Endocrinology 106 81 (1979); P. Melin, et al., J. of Endocrinology 88 173 (1981).
^a Medullary pig kidney tissue, […]

oxytocin receptors = target: T2, oxytocin receptors (Rattus norvegicus, UniProt P70536); assay: Isolated rat uterus protocol, oxytocin antagonism; type: cell-based; details: read-out: Rat OXT KB
T2 construct: Rat uterus; from tissue; host or cells: isolated rat uterus
T2 sequence (P70536 1-388): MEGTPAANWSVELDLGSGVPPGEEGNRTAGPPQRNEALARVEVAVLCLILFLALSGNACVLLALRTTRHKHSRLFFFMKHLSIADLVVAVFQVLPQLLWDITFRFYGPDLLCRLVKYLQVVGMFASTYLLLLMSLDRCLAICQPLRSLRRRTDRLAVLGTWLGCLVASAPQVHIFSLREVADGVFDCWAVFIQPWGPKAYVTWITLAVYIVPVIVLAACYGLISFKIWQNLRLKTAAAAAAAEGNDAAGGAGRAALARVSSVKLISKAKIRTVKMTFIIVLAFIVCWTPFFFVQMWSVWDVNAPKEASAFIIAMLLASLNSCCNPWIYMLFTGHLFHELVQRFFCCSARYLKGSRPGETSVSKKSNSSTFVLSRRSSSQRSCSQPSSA
Description: as §1

[2] = target: T3, V1 -vasopressin receptors (Rattus norvegicus, UniProt P30560); assay: Reversal of vasopressin-induced contraction of rat thoracic aorta tissue; type: cell-based; details: rat aortic ring tissue
T3 construct: Rat liver membrane; from tissue; host or cells: rat liver plasma membranes
Description: as §1
^c Rat aortic ring tissue, […]

T1 sequence (P32307 whole entry): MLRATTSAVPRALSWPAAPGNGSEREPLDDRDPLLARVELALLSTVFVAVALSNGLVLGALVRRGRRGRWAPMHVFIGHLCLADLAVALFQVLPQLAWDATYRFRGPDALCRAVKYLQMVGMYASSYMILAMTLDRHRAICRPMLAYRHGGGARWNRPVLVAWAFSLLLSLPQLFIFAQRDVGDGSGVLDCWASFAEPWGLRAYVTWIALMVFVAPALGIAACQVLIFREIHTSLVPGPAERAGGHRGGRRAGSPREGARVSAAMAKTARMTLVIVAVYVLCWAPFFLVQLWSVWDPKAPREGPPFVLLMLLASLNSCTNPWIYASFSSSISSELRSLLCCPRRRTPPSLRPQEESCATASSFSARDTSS
T3 sequence (P30560 whole entry): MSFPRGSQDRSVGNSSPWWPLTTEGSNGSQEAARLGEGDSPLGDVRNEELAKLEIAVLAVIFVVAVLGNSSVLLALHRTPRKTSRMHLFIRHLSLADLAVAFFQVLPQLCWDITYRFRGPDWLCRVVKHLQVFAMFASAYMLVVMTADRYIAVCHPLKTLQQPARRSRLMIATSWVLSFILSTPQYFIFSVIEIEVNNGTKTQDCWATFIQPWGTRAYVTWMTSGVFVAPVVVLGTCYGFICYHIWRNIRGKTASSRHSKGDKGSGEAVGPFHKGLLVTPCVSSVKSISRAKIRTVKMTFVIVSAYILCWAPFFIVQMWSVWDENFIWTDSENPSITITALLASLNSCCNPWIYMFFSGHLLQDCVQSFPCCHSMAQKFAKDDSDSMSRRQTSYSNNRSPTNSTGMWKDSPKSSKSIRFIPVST

CCOc1ccc(C[C@H]2NC(=O)CCSSC[C@@H](C(=O)N3CCC[C@H]3C(=O)NCCCCN)NC(=O)[C@H](CC(N)=O)NC(=O)[C@H]([C@@H](C)O)NC(=O)[C@H]([C@@H](C)CC)NC2=O)cc1 [C] ([Mpa][dY](Et)ITNCP-{NH(CH2)4NH2}; disulfide 1-6)
Kb [1]: 5700 nM
Kb (oxytocin receptors): 1.6 nM

COc1ccc(C[C@@H]2NC(=O)CC(C)(C)SSC[C@@H](C(=O)N3CCC[C@H]3C(=O)NCCCCN)NC(=O)[C@H](CC(N)=O)NC(=O)[C@H](CCC(N)=O)NC(=O)[C@H](Cc3ccccc3)NC2=O)cc1 [A] (Y(Me)FQNCP-{NH(CH2)4NH2}; linker N-5 via X1)
Kb [1]: 8600 nM
Kb [2]: 1.21 nM
Kb (oxytocin receptors): 5.91 nM

CCOc1ccc(C[C@@H]2NC(=O)CCSSC[C@@H](C(=O)N[C@@H](CCCNC(=N)N)C(=O)NCC(N)=O)NC(=O)[C@H](CC(N)=O)NC(=O)[C@H]([C@@H](C)O)NC(=O)[C@H]([C@@H](C)CC)NC2=O)cc1 [D] ([Mpa]Y(Et)ITNCRG-NH2; disulfide 1-6)
Kb [1]: 4100 nM
Kb (oxytocin receptors): 17.7 nM

CCOc1ccc(C[C@@H]2NC(=O)CCSSC[C@@H](C(=O)N[C@@H](CCCNC(=N)N)C(N)=O)NC(=O)[C@H](CC(N)=O)NC(=O)[C@H]([C@@H](C)O)NC(=O)[C@H]([C@@H](C)CC)NC2=O)cc1 [E] ([Mpa]Y(Et)ITNCR-NH2; disulfide 1-6)
Kb [1]: 1600 nM
Kb (oxytocin receptors): 11.4 nM

Reference: US4604378A, “Basic V1 -vasopressin antagonists” (SmithKline Beckman Corporation, priority 1984, dated 1986)
